For 14 compounds, inhibition, IC50 and anti-proliferative activity results are on record in paper PMC4702177, “Discovering new mTOR inhibitors for cancer treatment through virtual screening methods and in vitro assays” (Scientific Reports, 2016).

In test [1] the target is T1, human recombinant mTOR kinase (Homo sapiens, UniProt P42345).
T1 construct: a purified recombinant mTOR fragment (amino acids 1360-2549, CBA104-1KIT from Calbiochem); purchased Calbiochem CBA104-1KIT
Description: In vitro mTOR kinase assay (K-LISA ELISA, p70S6K-GST substrate). The format is biochemical. The settings on record: for inhibition at 10 µM: triplicate measurements; for IC50: mean ± SD of triplicate measurements. Here is the method:
The mTOR kinase inhibitory activities of the 41 final virtual hits were determined using an ELISA-based activity assays that utilize a p70S6K-GST fusion protein as a specific mTOR substrate (see the Experimental Section for details). For the initial screening, all the activities were measured at a concentration of 10 μM.
mTOR activity was evaluated using a purified recombinant mTOR fragment (amino acids 1360-2549, CBA104-1KIT from Calbiochem). The K-LISA^TM mTOR activity kit is an ELISA-based activity assay for detection of phosphorylation of a p70S6K-GST fusion protein (a specific mTOR substrate) in the presence of ATP. The assay was optimized for use with mTOR as described in the Calbiochem protocol. The assay takes place in 96-well plates and can be divided into two phases: an mTOR kinase reaction phase and phosphorylated substrate detection phase.
In the kinase reaction phase, the following components were mixed in the same well: 5 μL of a solution containing 5 μg/mL mTOR substrate (recombinant p70S6K-GST fusion protein) in Tris-buffered saline (1 L TBS: sodium chloride 8.8 g, Tris Base 2.4 g, HCl 13 mL, Tween-20 10 ml, ddH2O), 5 μL ATP solution containing 20 mM ATP diluted in kinase assay buffer (pH 7.4, 0.01% Tween 20, 1 mM EDTA, 10 mM MgCl2, 1 mM DTT), […] of human recombinant mTOR kinase at the optimal concentration (80 ng/well) diluted in kinase assay buffer, and 5 μL of serial dilutions of inhibitors diluted in DMSO and kinase assay buffer. For each inhibitor concentration, the assay was run in triplicate. The final reaction volume was 100 μL per well, and samples incubated for 30 min at room temperature.
The kinase reaction was stopped by adding 10 μL kinase stop solution to each well. The phosphorylated substrate was detected using Anti-p70S6K-pT389 antibody, followed by detection with HRP-Antibody Conjugate and TMB Substrate. Then, ELISA stop solution was added to each well to stop the reaction, and relative mTOR inhibition activity was determined by reading the absorbance at dual wavelengths of 450/540 nm.
For orientation: ELISA stands for enzyme-linked immunosorbent assay.

In the next test the target is mTOR kinase. The arrangement: method as in PMID 11575159. The settings on record: read-out: IC50 (mTOR kinase, reported); cited from earlier work.
The subject of another test is C6 (Glioma cell). Briefly: In vitro cell proliferation assay. The settings on record: data not shown. The format is cell-based. Here is the method: (§1) Most human breast cancer cells and cervical cancer cells become resistant to current chemotherapeutic drugs due to mutation of apoptotic mechanisms. It has been reported that MCF-7 cells are resistant to most of the drugs approved by the US Food and Drug Administration (FDA), including paclitaxel, doxorubicin, 5-fluorouracil, etoposide, and camptothecin[31][32].
(§2) Cell proliferation was measured with an MTS assay (CellTiter 96 Aqueous ONE Solution kit; Promega, Madison, USA). MCF-7, HeLa, MGC-803, C6 and U87 cells in log-phase were seeded (5 × 10^3 cells/well) in 96-well plates for 24 h, and then the medium were replaced with fresh medium containing different concentrations of compounds. […] After incubation for 48 h, the cells were further incubated with 20 μL of MTS for 1–4 h at 37 °C in a humidified incubator with 5% CO2. The absorbance at 490 nm was measured using a mircoplate reader (Model680, Bio-Rad; Hercules, CA, USA). The inhibition rate (%) was calculated as equation (1): […]
(§3) IC50 values were determined from the results of at least three independent tests and calculated from the inhibition curves.

In test [2] the test system is HeLa (human cervical cancer cell). Description: In vitro cell proliferation assay. The format is cell-based. As to conditions: data not shown. Here is the method: as §1, §2, §3
Test [3] deals with MCF-7 (human breast cancer cell). Briefly: In vitro cell proliferation assay. The class given is cell-based. As to conditions: data not shown. How it is done: as §1, §2, §3
For test [4], the system named is MGC-803 (human gastric cancer). Briefly: In vitro cell proliferation assay. The settings on record: data not shown. The format is cell-based. Here is the method: as §1, §2, §3
Another test concerns U87 cells (Glioma cell). Briefly: In vitro cell proliferation assay. The settings on record: data not shown. The class given is cell-based. How it is done:
as §1, §2, §3

Several values for one entry are separate records, joined by “and”; a condition that tells them apart may be missing. Identical values can stand only once.

T1 sequence (P42345 1360-2549): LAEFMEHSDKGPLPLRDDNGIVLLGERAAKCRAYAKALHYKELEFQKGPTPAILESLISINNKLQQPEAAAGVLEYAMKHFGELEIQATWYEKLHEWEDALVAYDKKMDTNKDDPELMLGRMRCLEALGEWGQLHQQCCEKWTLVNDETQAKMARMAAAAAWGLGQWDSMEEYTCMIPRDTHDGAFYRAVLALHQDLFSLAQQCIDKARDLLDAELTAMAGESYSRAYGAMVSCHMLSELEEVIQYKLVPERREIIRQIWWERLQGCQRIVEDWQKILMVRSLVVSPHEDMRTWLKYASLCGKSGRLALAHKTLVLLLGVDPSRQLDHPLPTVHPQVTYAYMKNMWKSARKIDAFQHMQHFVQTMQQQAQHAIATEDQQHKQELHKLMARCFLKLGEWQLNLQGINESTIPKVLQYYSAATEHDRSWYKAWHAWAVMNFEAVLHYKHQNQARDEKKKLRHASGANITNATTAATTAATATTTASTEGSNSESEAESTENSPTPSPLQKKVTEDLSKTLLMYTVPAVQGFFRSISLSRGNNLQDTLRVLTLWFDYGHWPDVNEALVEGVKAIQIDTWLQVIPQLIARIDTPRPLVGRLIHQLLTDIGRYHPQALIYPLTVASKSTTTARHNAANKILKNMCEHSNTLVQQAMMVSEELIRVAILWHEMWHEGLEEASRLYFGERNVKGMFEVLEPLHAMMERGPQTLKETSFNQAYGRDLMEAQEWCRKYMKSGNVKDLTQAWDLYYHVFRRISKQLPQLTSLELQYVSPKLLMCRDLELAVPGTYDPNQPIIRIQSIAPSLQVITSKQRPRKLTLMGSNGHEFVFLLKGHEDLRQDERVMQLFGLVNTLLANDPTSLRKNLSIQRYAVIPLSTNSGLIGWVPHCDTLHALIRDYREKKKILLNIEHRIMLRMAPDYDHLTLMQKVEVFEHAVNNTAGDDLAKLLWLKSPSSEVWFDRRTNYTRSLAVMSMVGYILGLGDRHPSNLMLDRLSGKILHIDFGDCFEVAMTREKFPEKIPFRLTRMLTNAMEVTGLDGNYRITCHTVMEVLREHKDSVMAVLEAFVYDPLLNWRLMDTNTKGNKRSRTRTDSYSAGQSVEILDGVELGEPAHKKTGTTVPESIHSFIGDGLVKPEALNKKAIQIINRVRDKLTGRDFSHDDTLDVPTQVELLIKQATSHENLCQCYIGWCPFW

As for `COc1c(-c2ccoc2)oc2ccc(C)cc2c1=O` [Compound 37], the inhibition at 10 µM in test [1] is 22%.

In the case of `COc1cc(/C=C2/SC(=S)N(C)C2=O)ccc1Oc1nc(N2CCOCC2)nc(N2CCOCC2)n1` [Compound 6], in test [1], the inhibition at 10 µM was 22%.

`Clc1ccc(-c2nnc3sc(-c4cnccn4)nn23)cc1` [Compound 20]: in test [1], the inhibition at 10 µM was 55%; the concentration for half-maximal inhibition (IC50) is < 10 µM and 9.2 µM.

For the compound `c1coc(-c2nnc3sc(-c4cnccn4)nn23)c1` [Compound 21], in test [1], the inhibition at 10 µM is 50% and the 50% inhibitory concentration (IC50) amounted to 14.4 ± 2.02 µM.

In the case of `O=C(CCl)Nc1ccc(/C=C2\CCCn3c2nc2cc(NC(=O)CCl)ccc2c3=O)cc1` [Compound 36], in test [1], the inhibition at 10 µM was 31% and the IC50 came to 14.9 ± 1.01 µM.

Take `COc1cccc(-c2nn3c(N)c(C#N)c(-c4cccnc4)nc3c2C)c1` [Compound 27]: in test [1], the inhibition at 10 µM is 38% and the IC50 was found to be 28.6 ± 2.65 µM.

With `Cc1cc(=O)n2nc(N)c(/N=N/c3ccccc3)c2[nH]1` [Compound 9], in test [1], the inhibition at 10 µM turned out to be 23%.

Take `COC[C@H]1OC(=O)c2coc3c2[C@@]1(C)C1=C(C3=O)[C@@H]2CCC(=O)[C@@]2(C)C[C@H]1OC(C)=O` [Wortmanin]: the IC50 on mTOR kinase was […].

Take `Nc1nc2ncc(-c3n[nH]cc3[N+](=O)[O-])cn2n1` [Compound 12]: in test [1], the inhibition at 10 µM worked out at 30%.

Consider `COC(=O)c1sc2nc(-c3ccccc3)nc(N3CCOCC3)c2c1C` [Compound 25], for which, in test [1], the inhibition at 10 µM was determined as 36% and the IC50 was > 50 µM.

For `O=C(NC(=S)Nc1ccc2oc(-c3cccnc3)nc2c1)c1ccco1` [Compound 26], in test [1], the inhibition at 10 µM was 33% and the IC50 is > 50 µM.

With `O=[N+]([O-])c1c(Nc2ccc3c(c2)OCO3)cc(N2CCOCC2)c2nonc12` [Compound 18], in test [1], the inhibition at 10 µM came to 38% and the IC50 is > 50 µM.

With `NC(=O)c1nnn(Cc2cc(Cl)c(C(=O)c3ccc(Cl)cc3)c(Cl)c2)c1N` [Compound 33], the inhibition at 10 µM in test [1] was 21%.

Turning to `CNc1cccc2c(NC(=S)NC(=O)c3cccc(C(=O)NC(C)=S)c3)cccc12` [Compound 40], in test [1], the inhibition at 10 µM is 91%. Further, the concentration for half-maximal inhibition (IC50) in test [1] was < 10 µM and 1.47 µM. Moreover, the anti-proliferative activity entry (with C6 (Glioma cell); in test [2]; in test [3]; in test [4]; in the test on U87 cells (Glioma cell)) was “do not show anti-proliferative activity” each time.

Broadly, the inhibition is the change of the read-out against control, counted positive when it falls. Broadly, the IC50 is the concentration needed to halve the response being measured.
